{"source": "patent US20100297056A1", "about": "“COMPOSITION BASED ON PERHYDROSQUALENE AND COLLAGEN-POLYVINYLPYRROLIDONE FOR FILLING MINOR CUTANEOUS DEPRESSIONS” (ASPID, S.A. DE C.V., priority 2007, published 2010)", "key": {"[1]": {"details": "dogs, cited from earlier work"}, "[2]": {"details": "humans; cited from earlier work"}, "[3]": {"details": "rats, oral, three-month period; cited from earlier work"}, "[4]": {"details": "in vivo; cited from earlier work"}, "[5]": {"details": "mice; cited from earlier work"}, "[6]": {"details": "excreted through natural routes; cited from earlier work"}, "rat skin": {"test_system": "rat skin", "test": "murine model of intradermal administration of implant materials", "format": "in vivo, rats", "details": "sensorial analog scale, papule palpation", "method": "Because of the above, a murine model essay of intradermal administration was designed, wherein several implant materials were evaluated such as natural and synthetic jojoba oil, peanut oil and perhydrosqualene, mixed with collagen-polyvinylpyrrolidone, various emulsifiers and a gelling agent (dibutyl-lauroyl glutamide). The administration of the implant materials generated papules, formed by the deposition of the material in the reticular dermis of the back of the rats. The papules were evaluated with regard to the tolerance of the tissue to the implant through a visual analog scale during a period of about 30 days, with their intervals; moreover, the eventual occurrence of skin changes such as irritation, ischemia formation and in some cases tissue necrosis related to the implanted material were reported, as well as the durability of the bioimplant that was quantified through a sensorial analog scale derived from the papule palpation.\nIn the same way, histological rat skin changes were evaluated through biopsies obtained from the implant infiltrated site, said biopsies were collected at different times in order to determine whether changes occurred in the internal skin structure, as well as to observe the implant site, the inflammatory infiltrate, the ratio between type I and type III collagens, as well as the possible formation of granulomes."}}}
{"smiles": "CC(C)CCCC(C)CCCC(C)CCCCC(C)CCCC(C)CCCC(C)C", "note": "(stereo not drawn) [perhydrosqualene, 2,6,10,15,19,23-hexamethyltetracosane]", "values": [{"measurement": "blood level", "setting": "[1]; 1200 mg/kg during 14 days", "value": 30, "unit": "ppm"}, {"measurement": "perhydrosqualene excretion", "setting": "[1]; 1200 mg/kg during 14 days", "value": "65-90 % per day"}, {"measurement": "perhydrosqualene in blood on day 56", "setting": "[1]; day 56 after the first dose", "value": "not detectable"}, {"measurement": "cutaneous and ocular irritation", "setting": "[2]", "value": "absence of cutaneous and ocular irritation"}, {"measurement": "signs of toxicity", "setting": "[3]", "value": "did not show signs of toxicity"}, {"measurement": "mean lethal dose DL50", "setting": "[4]", "value": "> 20", "unit": "mL/kg"}, {"measurement": "irritation after subcutaneous injections", "setting": "[5]", "value": "absence of cutaneous and ocular irritation"}, {"measurement": "metabolism", "setting": "[6]", "value": "non-metabolizable"}, {"measurement": "durability of the bioimplant in the tissue", "setting": "rat skin", "value": "constant even 15 days after its administration"}]}
